Each structure is given as a SMILES string. Structures can show the parent of a compound that is named as a salt.

Series [1] relates to EGF, HIF responsive cell line (HIF-responsive reporter gene). Nature of the series: reporter gene assay in EGF, HIF responsive cancer cell line. The series is classed as cell-based. To be noted: for effect on regulated reporter gene expression (screen): single agents, screen of thousands of compounds. How it is done: (§1) Cancer cell lines (Panc1, for pancreatic cancer, and A549 for non-small cell lung carcinoma) were transfected with the construct depicted in FIG. 1. The retroviral vector contained a […] gene (a negative selection marker), a zeocin resistance marker (a positive selection marker) and a gene encoding beta-galactosidase “β-gal”, as a reporter gene.
(§2) Cells were grown to a significant cell density and exposed to zeocin, so as to select for cells expressing the zeocin marker in the presence of high levels of extracellular signaling. […] Under these conditions, cells were exposed to an agent such as ganciclovir that causes lethality in TK+ cells. This selection step eliminated those cells containing a nucleic acid construct that is expressed at significant levels even in low extracellular signaling conditions. The resulting cells were then used for further study.
An EGF, HIF responsive cell line was screened for compounds affecting the regulated gene expression. Thousands of compounds were screened.
On the technique in general: In a reporter assay the amount or activity of a reporter protein is the signal.

A further series concerns HT-29/Colon. Nature of the series: anti-proliferative effect, HT-29 colon cancer cell line. The series is classed as cell-based. The conditions noted are these: Homo sapiens. From the text: (§3) The inhibition of reporter activity was later correlated with an anti-proliferative effect in representative colon, lung, prostate, cervical, renal, uterine, breast, and pancreatic cancer cell lines as shown in table 1.
The ouabain concentration required to achieve an antiproliferative effect in cells of the HT29 colon cancer cell line (FIG. 20) is decreased five-fold in the presence of bicalutamide (Casodex).

A further series relates to Caki-1/Renal. Nature of the series: anti-proliferative effect, Caki-1 renal cancer cell line. Type of series: cell-based. To be noted: Homo sapiens.
Excerpt: as §3

The subject of another series is Panc-1. Nature of the series: anti-proliferative effect, Panc-1 pancreatic cancer cell line. The conditions noted are these: Homo sapiens; Panc-1, anti-proliferative. Type of series: cell-based.
Excerpt: as §3

A further series concerns LnCap/Prostate. In words: anti-proliferative effect, LnCap prostate cancer cell line. Type of series: cell-based. To be noted: Homo sapiens.
Excerpt: as §3

In the next series the test system is PC3/Prostate. In words: anti-proliferative effect, PC3 prostate cancer cell line. Type of series: cell-based.
Excerpt: as §3

A further series concerns MES-SA-DX5/Uterine. Nature of the series: anti-proliferative effect, MES-SA-DX5 uterine cancer cell line. Type of series: cell-based. To be noted: Homo sapiens.
Excerpt: as §3

Series [2] deals with several different cancer cell lines. In words: proliferation of cancer cell lines (several lines, summary). Type of series: cell-based. The conditions noted are these: range over cell lines, read-out: IC50 across several different cancer cell lines. How it is done:
The IC50 measured for ouabain across several different cancer cell lines ranged from about 80 nM to about 300 nM. The concentration at which a cardiac glycoside is effective as part of an antiproliferative treatment may be further decreased by combination with an additional agent that negatively regulates HIF-responsive genes, such as a redox effector or a steroid signal modulator. For example, as shown herein, the concentration at which a cardiac glycoside (ouabain) is effective for inhibiting proliferation of cancer cells is decreased 5-fold by combination with a steroid signal modulator (Casodex). Therefore, in certain embodiments, the invention provides combination therapies of cardiac glycosides with, for example, steroid signal modulators and/or redox effectors. Additionally, cardiac glycosides may be combined with radiation therapy, taking advantage of the radiosensitizing effect that many cardiac glycosides have.

The subject of the next series is C-33A/Cervical. In words: anti-proliferative effect, C-33A cervical cancer cell line. The series is classed as cell-based. To be noted: Homo sapiens.
Excerpt: as §3

For a further series, the system named is HCT-116/Colon. Nature of the series: anti-proliferative effect, HCT-116 colon cancer cell line. Type of series: cell-based. The conditions noted are these: Homo sapiens.
Excerpt: as §3

The next series deals with DU-145/Prostate. Nature of the series: anti-proliferative effect, DU-145 prostate cancer cell line. Type of series: cell-based. The conditions noted are these: Homo sapiens.
Excerpt: as §3

Another series deals with A549/Lung. Nature of the series: anti-proliferative effect, A549 lung cancer cell line. Type of series: cell-based. The conditions noted are these: Homo sapiens.
Excerpt: as §3

The next series has as its system SK-MES/Lung. In words: anti-proliferative effect, SK-MES lung cancer cell line. The series is classed as cell-based.
Excerpt: as §3

The next series deals with MES-SA/Uterine. In words: anti-proliferative effect, MES-SA uterine cancer cell line. Type of series: cell-based. The conditions noted are these: Homo sapiens.
Excerpt: as §3

The next series concerns MCF-7/Breast. Nature of the series: anti-proliferative effect, MCF-7 breast cancer cell line. The series is classed as cell-based. To be noted: Homo sapiens, MCF7.
Excerpt: as §3

The next series concerns HIF-2α protein. In words: level of HIF-2α protein in cancer cells. The series is classed as cell-based.
Series [3] concerns EGF-responsive gene expression. Nature of the series: EGF-responsive gene expression in recovered reporter cell lines. Type of series: cell-based. How it is done:
as §1
as §2, with “signaling. Cells were also exposed to a growth factor, such as EGF, insulin or IGF, although in some instances, the growth factor had only minor effects on gene expression compared to the generalized effect of extracellular signaling. The selected cell cultures were greatly depleted of cells by zeocin treatment, as the vast majority of cells were eliminated by the zeocin.” for “signaling.”
FIGS. 3 through 9 depict the results from a series of experiments characterizing the recovered cell lines. […]

On to `CC(=O)O[C@H]1C[C@H](O[C@H]2[C@@H](O)C[C@H](O[C@H]3[C@@H](O)C[C@H](O[C@H]4CC[C@@]5(C)[C@H](CC[C@@H]6[C@@H]5C[C@@H](O)[C@]5(C)[C@@H](C7=CC(=O)OC7)CC[C@]65O)C4)O[C@@H]3C)O[C@@H]2C)O[C@H](C)[C@H]1O[C@@H]1O[C@H](CO)[C@@H](O)[C@H](O)[C@H]1O` [lanatoside C], for which, in series [1], the “effect on regulated reporter gene expression (screen)” value (from here on “effect”) is reported as “effective”.
`C[C@@H]1O[C@@H](O[C@H]2C[C@@H](O)[C@]3(CO)[C@H]4[C@H](O)C[C@]5(C)[C@@H](C6=CC(=O)OC6)CC[C@]5(O)[C@@H]4CC[C@]3(O)C2)[C@H](O)[C@H](O)[C@H]1O` [Ouabain, ouabain]: the IC50 (as a rule, the concentration needed to halve the response being measured) in the series on HT-29/Colon is greater than 800 nM; with Caki-1/Renal, 150 nM; in the series with Panc-1, 150 nM; in the series with LnCap/Prostate, 150 nM; with PC3/Prostate, 150 nM; in the series with MES-SA-DX5/Uterine, 80 nM. For the same compound, the IC50 in series [2] is 80 to 300 nM; in the series on C-33A/Cervical, 100 nM; with HCT-116/Colon, 150 nM; in the series with DU-145/Prostate, 300 nM; with A549/Lung, 300 nM; in the series on SK-MES/Lung, 100 nM. Moreover, the IC50 in the series on MES-SA/Uterine worked out at 80 nM; in the series on MCF-7/Breast, 100 nM. The “required dose for inhibition of reporter activity relative to cardiotonic dose” value in [1] is on record as “well below the dose required for ouabain as a cardiotonic agent”. Moreover, the “effect” value in series [1] is reported as “effective”.
As for `O=C(Nc1ccc([N+](=O)[O-])cc1Cl)c1cc(Cl)ccc1O` [Niclosamide, niclosamide], the IC50 is 8000 nM in the series on HT-29/Colon; 1500 nM in the series on Caki-1/Renal; 5000 nM in the series on Panc-1; 2000 nM in the series with LnCap/Prostate; 5000 nM with PC3/Prostate; 6000 nM in the series on MES-SA-DX5/Uterine. The concentration for half-maximal inhibition (IC50) in the series with C-33A/Cervical stood at 5000 nM; in the series on HCT-116/Colon, 800 nM; with DU-145/Prostate, 5000 nM; in the series with A549/Lung it was 1500 nM; in the series on SK-MES/Lung, 2000 nM; in the series on MES-SA/Uterine, 9000 nM. Moreover, 2500 nM corresponded to half-maximal inhibition with MCF-7/Breast (IC50). Further, in the series with HIF-2α protein, the “level of HIF-2α protein” value was “decrease”. The “effect” value in series [1] is reported as “effective”. In addition, the serum half-life result in the series “serum half-life” is “short”.
For the compound `Clc1ccc(COC(Cn2ccnc2)c2ccc(Cl)cc2Cl)cc1` (stereo not drawn) [econazole nitrate], the “effect” value in series [1] was “effective”.
The same measure, in the same setting: the same measure for `CC1=CC(=O)c2ccccc2C1=O` [menadione]: “effective”.
On to `CC/C(=C(/CC)c1ccc(O)cc1)c1ccc(O)cc1` [diethylstilbestrol], for which the “effect” value in series [1] is reported as “effective”.
`C/C=C(/C(=C/C)c1ccc(O)cc1)c1ccc(O)cc1` [dienestrol]: the “effect” value in series [1] is recorded as “effective”.
Still for that read-out and setting: the same measure for `Clc1ccccc1C(c1ccccc1)(c1ccccc1)n1ccnc1` [clotrimazole]: “effective”; for `C[C@H]1O[C@@H](O[C@H]2[C@@H](O)C[C@H](O[C@H]3[C@@H](O)C[C@H](O[C@H]4CC[C@@]5(C)[C@H](CC[C@@H]6[C@@H]5C[C@@H](O)[C@]5(C)[C@@H](C7=CC(=O)OC7)CC[C@]65O)C4)O[C@@H]3C)O[C@@H]2C)C[C@H](O)[C@@H]1O` [digoxin]: “effective”; for `CCCCC(CC)CNC(=N)NC(=N)NCCCCCCNC(=N)NC(=N)NCC(CC)CCCC` (stereo not drawn) [alexidine dihydrochloride]: “effective”.
For the compound `CCCC(C(=O)OCCN(CC)CC)(c1ccccc1)c1ccccc1` [proadifen hydrochloride], the “effect” value in [1] is “effective”.
For the compound `COc1cc2ncnc(Nc3ccc(F)c(Cl)c3)c2cc1OCCCN1CCOCC1` [Iressa], in series [3], the EGF-responsive gene expression entry is listed as “inhibited”.
For the compound `C[C@]12CC[C@H](O)C[C@H]1CC[C@@H]1[C@@H]2CC[C@]2(C)[C@@H](C3=CC(=O)OC3)CC[C@]12O` [digitoxigenin], the “effect” value in series [1] is on record as “effective”.
On the same count and under the same terms, the entry for `OC(c1cc(C(F)(F)F)nc2c(C(F)(F)F)cccc12)C1CCCCN1` (stereo not drawn) [mefloquine hydrochloride] is “effective”.
On the same count and under the same terms, the same measure for `CC(C)/N=c1\cc2n(-c3ccc(Cl)cc3)c3ccccc3nc-2cc1Nc1ccc(Cl)cc1` [clofazimine]: “effective”.

For the origin of these results see patent publication US20050250709A1, “Anti-neoplastic agents, combination therapies and related methods” (Bionaut Pharmaceuticals, priority 2003, published 2005).
